Source: US10364222B2, “Cyclic amine derivative and medical use thereof” (Toray Industries, Inc., priority 2016, dated 2019)

Experiments:
[1] = target: T1, ligand-binding domain of RORγ (RORγ-LBD) (Homo sapiens, UniProt P51449); assay: Inhibitory effect on RORγ-coactivator binding (LanthaScreen TR-FRET RORγ Coactivator Assay); settings: at 33 μmol/L of the test compound; read-out: RORγ-coactivator binding inhibition rate (%)
T1 construct: purchased Invitrogen
T1 sequence (P51449 269-508 limits assumed): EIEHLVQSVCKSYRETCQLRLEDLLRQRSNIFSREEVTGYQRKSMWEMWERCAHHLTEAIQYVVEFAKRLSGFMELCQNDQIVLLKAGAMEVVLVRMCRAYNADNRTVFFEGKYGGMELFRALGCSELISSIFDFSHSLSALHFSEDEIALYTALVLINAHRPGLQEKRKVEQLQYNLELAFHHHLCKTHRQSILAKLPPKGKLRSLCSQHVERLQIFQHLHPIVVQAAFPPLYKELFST
Procedure, shortened: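 TR-FRET: 4 nmol/L GST-RORγ-LBD with compound (1% DMSO) in Coregulator Buffer D plus 5 mmol/L DTT, then 150 nmol/L fluorescein-TRAP220/DRIP-2 and 32 nmol/L Tb-anti-GST antibody; 16–24 hours at room temperature. 520/495 nm ratio (320 nm excitation), background-corrected against control, gives % inhibition of coactivator binding.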

[2] = tested on: mouse experimental autoimmune encephalomyelitis model; assay: Mouse experimental autoimmune encephalomyelitis model; assay type: in vivo; settings: C57BL/6J mice, vs vehicle
Protocol: Using increase in the neurological symptom score as an index of exacerbation of symptoms, the effect of the cyclic amine derivative (I) or a pharmacologically acceptable salt thereof in a mouse experimental autoimmune encephalomyelitis model was evaluated. The mouse experimental autoimmune encephalomyelitis model was prepared by a partially modified method by Hindinger et al. (Journal of Neuroscience Research, 2006, Vol. 84, p. 1225-1234).
A total of 0.1 mL (0.05 mL on each side) of an MOG35-55 administration solution prepared by mixing a PBS solution containing partial synthetic peptides of myelin oligodendrocyte glycoproteins (MOG35-55; CSBio, Inc.) prepared to a concentration of 4 mg/mL with Freund's complete adjuvant at equal amount was intradermally inoculated to both flank sides of C57BL/6J mice (male, 8 weeks old) (Charles River Laboratories Japan, Inc.). Furthermore, 200 μL of pertussis toxin (Sigma-Aldrich Japan) prepared to a concentration of 1 μg/mL was intraperitoneally administered to the mice on the day of inoculation and 2 days after inoculation of the MOG35-55 administration solution.
After inoculation of the MOG35-55 administration solution, the test compound was administered to the mice. As the test compound, the compound of Example 20, the compound of Example 29, and the compound of Example 57 were used. The compound of Example 20 was suspended in a 0.5 w/v % methylcellulose solution and orally administered once daily at a dose of 3 mg/kg every day from 2 days after inoculation of the MOG35-55 administration solution. […]
After inoculation of the MOG35-55 administration solution, the neurological symptom scores in the groups in which test compound was administered and the corresponding vehicle administration groups were scored (0: normal, 1: limp tail or hind limb weakness, 2: limp tail and hind limb weakness, 3: partial hind limb paralysis, 4: complete hind limb paralysis, 5: moribund state). […]

Structure (SMILES)	inhibition at 33 µM [1] [%]	increase in the neurological symptom score ([2]; 1 mg/kg orally once daily from 13 days after MOG35-55 inoculation, score on the 30th day, Wilcoxon test P<0.05 (FIG. 3))	increase in the neurological symptom score ([2]; 1 mg/kg orally once daily from 13 days after MOG35-55 inoculation, score on the 23rd day, Wilcoxon test P<0.05 (FIG. 2))	increase in the neurological symptom score ([2]; 3 mg/kg orally once daily from 2 days after MOG35-55 inoculation, score on the 13th day, Wilcoxon test P<0.05 (FIG. 1))
O=C(Nc1ccc(-c2ccccc2OC(F)(F)F)c(Cl)c1)[C@H]1CCCCN1C(=O)Cn1cnnn1 [Example 57, (R)-1-(2-(1H-tetrazol-1-yl)acetyl)-N-(2-chloro-2′-(trifluoromethoxy)-[1,1′-biphenyl]-4-yl)piperidine-2-carboxamide]	103	statistically significantly suppressed	–	–
CN(CC(=O)N1CCCC[C@@H]1C(=O)Nc1ccc(-c2ccccc2OC(F)(F)F)c(Cl)c1)S(C)(=O)=O [Example 29, (R)-N-(2-chloro-2′-(trifluoromethoxy)-[1,1′-biphenyl]-4-yl)-1-(2-(N-methylmethylsulfonamide)acetyl)piperidine-2-carboxamide]	101	–	statistically significantly suppressed	–
CC(=O)N1CCCC[C@@H]1C(=O)Nc1ccc(-c2ccccc2OC(F)(F)F)c(Cl)c1 [Example 20, (R)-1-acetyl-N-(2-chloro-2′-(trifluoromethoxy)-[1,1′-biphenyl]-4-yl)piperidine-2-carboxamide]	101	–	–	statistically significantly suppressed
